Source: ChEMBL document CHEMBL4316626, “N-Acyl pyrazoles: Effective and tunable inhibitors of serine hydrolases” (Bioorg Med Chem, 2019)
Activity calls are given as the source filed them. The calls are words filed in the database; no cut-off is given here.

Experiments:
[1] = Inhibition of recombinant rat FAAH deltaTM mutant expressed in Escherichia coli using 14C-labeled oleamide as substrate preincubated for 3 hrs followed by substrate addition and measured by TLC based Dixon-plot analysis; conditions: read-out: Ki(app)
[2] = biological target: T1, Fatty-acid amide hydrolase 1 (Mus musculus, UniProt O08914); test: Inhibition of FP-rhodamine probe binding to FAAH in mouse brain membrane proteome preincubated for 1 hr followed by FP-rhodamine addition and measured after 30 mins by SDS-PAGE based fluorescence assay; format: cell membranes
T1 sequence (O08914 whole entry): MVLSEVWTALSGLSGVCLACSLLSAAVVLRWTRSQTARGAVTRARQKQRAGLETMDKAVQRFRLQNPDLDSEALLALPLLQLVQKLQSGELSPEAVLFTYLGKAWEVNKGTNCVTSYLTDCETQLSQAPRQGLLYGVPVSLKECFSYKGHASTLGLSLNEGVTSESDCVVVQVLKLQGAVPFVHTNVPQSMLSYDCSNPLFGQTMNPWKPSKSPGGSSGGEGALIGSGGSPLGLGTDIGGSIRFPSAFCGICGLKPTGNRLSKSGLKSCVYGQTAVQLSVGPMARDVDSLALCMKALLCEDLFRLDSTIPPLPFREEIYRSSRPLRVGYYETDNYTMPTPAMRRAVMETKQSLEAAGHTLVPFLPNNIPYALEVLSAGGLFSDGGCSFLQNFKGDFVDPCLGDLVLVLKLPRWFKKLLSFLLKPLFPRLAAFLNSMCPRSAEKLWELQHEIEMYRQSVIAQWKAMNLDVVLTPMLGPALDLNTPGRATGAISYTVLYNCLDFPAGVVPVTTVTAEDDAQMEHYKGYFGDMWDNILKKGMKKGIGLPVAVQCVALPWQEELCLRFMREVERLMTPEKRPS

Monoglyceride lipase = biological target: T2, Monoglyceride lipase (Mus musculus, UniProt O35678); test: Inhibition of FP-rhodamine probe binding to MGLL in mouse brain membrane proteome preincubated for 1 hr followed by FP-rhodamine addition and measured after 30 mins by SDS-PAGE based fluorescence assay; format: cell membranes
T2 sequence (O35678 whole entry): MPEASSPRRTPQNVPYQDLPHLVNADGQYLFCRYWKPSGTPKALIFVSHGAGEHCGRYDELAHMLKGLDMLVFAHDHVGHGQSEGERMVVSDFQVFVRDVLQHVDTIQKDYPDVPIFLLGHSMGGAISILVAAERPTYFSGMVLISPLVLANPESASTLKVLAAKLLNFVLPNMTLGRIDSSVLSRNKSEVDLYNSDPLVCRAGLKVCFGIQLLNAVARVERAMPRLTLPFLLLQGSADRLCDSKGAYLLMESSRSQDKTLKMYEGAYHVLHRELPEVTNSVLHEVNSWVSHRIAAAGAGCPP

[3] = biological target: T3, Monoacylglycerol lipase ABHD6 (Mus musculus, UniProt Q8R2Y0); test: Inhibition of FP-rhodamine probe binding to ABHD6 in mouse brain membrane proteome preincubated for 1 hr followed by FP-rhodamine addition and measured after 30 mins by SDS-PAGE based fluorescence assay; format: cell membranes
T3 sequence (Q8R2Y0 whole entry): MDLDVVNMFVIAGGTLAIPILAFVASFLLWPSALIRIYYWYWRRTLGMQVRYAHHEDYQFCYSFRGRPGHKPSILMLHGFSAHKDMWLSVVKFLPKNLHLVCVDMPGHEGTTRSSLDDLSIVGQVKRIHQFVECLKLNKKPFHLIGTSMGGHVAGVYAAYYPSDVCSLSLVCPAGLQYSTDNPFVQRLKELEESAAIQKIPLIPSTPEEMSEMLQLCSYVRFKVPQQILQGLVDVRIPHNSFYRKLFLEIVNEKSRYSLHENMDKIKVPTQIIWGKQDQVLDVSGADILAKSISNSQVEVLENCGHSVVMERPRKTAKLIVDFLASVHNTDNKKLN

[4] = biological target: T4, Neutral cholesterol ester hydrolase 1 (Mus musculus, UniProt Q8BLF1); test: Inhibition of FP-rhodamine probe binding to KIAA1363 in mouse brain membrane proteome preincubated for 1 hr followed by FP-rhodamine addition and measured after 30 mins by SDS-PAGE based fluorescence assay; format: cell membranes
T4 sequence (Q8BLF1 whole entry): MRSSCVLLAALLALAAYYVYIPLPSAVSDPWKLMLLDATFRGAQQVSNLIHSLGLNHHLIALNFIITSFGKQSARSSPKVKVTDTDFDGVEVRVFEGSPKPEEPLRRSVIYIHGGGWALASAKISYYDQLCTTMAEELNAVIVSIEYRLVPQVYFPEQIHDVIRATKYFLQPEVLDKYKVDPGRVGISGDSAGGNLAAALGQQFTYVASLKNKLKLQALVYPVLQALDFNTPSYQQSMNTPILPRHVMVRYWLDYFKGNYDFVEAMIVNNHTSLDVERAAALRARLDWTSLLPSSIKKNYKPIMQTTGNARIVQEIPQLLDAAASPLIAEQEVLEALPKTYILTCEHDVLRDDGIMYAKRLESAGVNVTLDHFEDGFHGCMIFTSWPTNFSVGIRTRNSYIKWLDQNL

Rattus norvegicus [5] = organism: Rattus norvegicus; test: Inhibition of recombinant rat FAAH deltaTM mutant expressed in Escherichia coli at 10 nM using 14C-labeled oleamide as substrate preincubated for 3 hrs by TLC method relative to control
Rattus norvegicus [6] = organism: Rattus norvegicus; test: Irreversible inhibition of recombinant rat FAAH deltaTM mutant expressed in Escherichia coli at 10 nM using 14C-labeled oleamide as substrate preincubated for 3 hrs followed by dialysis for 18 hrs
Rattus norvegicus [7] = organism: Rattus norvegicus; test: Inhibition of recombinant rat FAAH deltaTM mutant expressed in Escherichia coli at 50 nM using 14C-labeled oleamide as substrate preincubated for 3 hrs by TLC method relative to control
Rattus norvegicus [8] = organism: Rattus norvegicus; test: Irreversible inhibition of recombinant rat FAAH deltaTM mutant expressed in Escherichia coli at 50 nM using 14C-labeled oleamide as substrate preincubated for 3 hrs followed by dialysis for 18 hrs
Rattus norvegicus [9] = organism: Rattus norvegicus; test: Time-dependent irreversible inhibition of recombinant rat FAAH deltaTM mutant expressed in Escherichia coli using 14C-labeled oleamide as substrate by TLC method
Rattus norvegicus [10] = organism: Rattus norvegicus; test: Inhibition of recombinant rat FAAH deltaTM mutant expressed in Escherichia coli at 100 nM using 14C-labeled oleamide as substrate preincubated for 3 hrs by TLC method relative to control
Rattus norvegicus [11] = organism: Rattus norvegicus; test: Irreversible inhibition of recombinant rat FAAH deltaTM mutant expressed in Escherichia coli at 100 nM using 14C-labeled oleamide as substrate preincubated for 3 hrs followed by dialysis for 18 hrs

Compound | Ki [1] [µM] | IC50 [2] [µM] | IC50 (Monoglyceride lipase) [µM] | IC50 [3] [µM] | IC50 [4] [µM] | inhibition (Rattus norvegicus [5]) [%] | inhibition (Rattus norvegicus [6]) | inhibition (Rattus norvegicus [7]) [%] | inhibition (Rattus norvegicus [8]) | TDI (Rattus norvegicus [9]) | inhibition (Rattus norvegicus [10]) [%] | inhibition (Rattus norvegicus [11])
Cc1cnn(C(=O)N2CCN(C(c3ccc(OCc4ccccc4)cc3)c3ccc(OCc4ccccc4)cc3)CC2)c1 | 110 | > 100 | 2.1 | > 100 | > 100 |  |  |  |  |  |  | 
CN(CCN(C)C(=O)n1cc(C#N)cn1)Cc1cccc(OCc2ccccc2)c1 | 0.0013 | 0.19 | 0.59 | 1.1 | > 100 |  |  |  |  |  |  | 
O=C(N1CCCCC1)n1cccn1 | 0.75 | 1 | 6.6 | 5 | > 100 |  |  |  |  |  |  | 
O=C(NCc1ccc(OC(c2ccccc2)c2ccccc2)cc1)n1cccn1 | 140 | > 100 | > 100 |  | > 100 |  |  |  |  |  |  | 
Cc1cnn(C(=O)N2CCCCC2)c1 | > 1 | 2.2 | 9.2 | 1.1 | > 100 |  |  |  |  |  |  | 
N#Cc1cnn(C(=O)N2CCN(Cc3ccc4ccccc4c3)CC2)c1 | 0.00016 | < 0.01 | 0.055 | < 0.01 | > 100 | > 70 | Active |  |  |  |  | 
N#Cc1cnn(C(=O)N2CCCN(Cc3ccc(OCc4ccccc4)cc3)CC2)c1 | 0.0015 | < 0.01 | 10 | 0.085 | > 100 |  |  |  |  |  |  | 
O=C(N1CCCN(Cc2ccc(OCc3ccccc3)cc2)CC1)n1cccn1 | 0.034 | 0.45 | 10 | 0.96 | > 100 |  |  |  |  |  |  | 
O=C(N1CCN(C(c2ccc(OCc3ccccc3)cc2)c2ccc(OCc3ccccc3)cc2)CC1)n1cccn1 | 73 | > 100 | 3.9 | > 100 | > 100 |  |  |  |  |  |  | 
O=C(N1CCN(Cc2ccc3ccccc3c2)CC1)n1cccn1 | 0.0098 | 0.09 | 0.96 | 0.01 | > 100 |  |  | > 70 | Active |  |  | 
CN(CCN(C)C(=O)n1cccn1)Cc1ccc(OCc2ccccc2)cc1 | 0.013 | 0.51 | 0.66 | 0.53 | > 100 |  |  |  |  |  |  | 
O=C(N1CCN(C(c2ccc3ccccc3c2)c2ccc3ccccc3c2)CC1)n1cccn1 |  | > 100 | 1.8 | > 100 | > 100 |  |  |  |  |  |  | 
Cc1cnn(C(=O)NCc2ccc(OCc3ccccc3)cc2)c1 | 0.3 | 1.2 | 1 |  | > 100 |  |  |  |  |  |  | 
CN(CCN(C)C(=O)n1cc(C#N)cn1)Cc1ccc(OCc2ccccc2)cc1 | 0.003 | 0.12 | 0.26 | 0.32 | > 100 |  |  |  |  |  |  | 
N#Cc1cnn(C(=O)NCc2ccc(OCc3ccccc3)cc2)c1 | 0.017 | 0.06 | 0.1 |  | > 100 |  |  |  |  |  |  | 
N#Cc1cnn(C(=O)N2CCN(Cc3ccc(OCc4ccccc4)cc3)CC2)c1 | 0.00016 | < 0.01 | < 0.01 | < 0.01 | > 100 | > 70 | Active |  |  | Active |  | 

Compound | Ki [1] [µM] | IC50 [2] [µM] | IC50 (Monoglyceride lipase) [µM] | IC50 [3] [µM] | IC50 [4] [µM] | inhibition (Rattus norvegicus [5]) [%] | inhibition (Rattus norvegicus [6]) | inhibition (Rattus norvegicus [7]) [%] | inhibition (Rattus norvegicus [8]) | TDI (Rattus norvegicus [9]) | inhibition (Rattus norvegicus [10]) [%] | inhibition (Rattus norvegicus [11])
CN(CCN(C)C(c1ccc(OCc2ccccc2)cc1)c1ccc(OCc2ccccc2)cc1)C(=O)n1cc(C#N)cn1 |  | > 1000 | 32 | > 1000 | > 1000 |  |  |  |  |  |  | 
CN(CCN(C)C(=O)n1cccn1)Cc1cccc(OCc2ccccc2)c1 | 0.0066 | 3 | 4.6 | 5.5 | > 100 |  |  |  |  |  |  | 
Cc1cnn(C(=O)N2CCCN(Cc3ccc(OCc4ccccc4)cc3)CC2)c1 | 0.23 | 0.56 | 9.5 | 9.5 | > 100 |  |  |  |  |  |  | 
CN(CCN(C)C(c1ccc(OCc2ccccc2)cc1)c1ccc(OCc2ccccc2)cc1)C(=O)n1cccn1 |  | > 1000 | > 1000 | > 1000 | > 1000 |  |  |  |  |  |  | 
Cc1cnn(C(=O)N2CCN(Cc3ccc4ccccc4c3)CC2)c1 | 0.13 | 0.96 | 0.92 | 0.01 | > 100 |  |  |  |  |  | > 70 | Active
Cc1cnn(C(=O)N2CCN(C(c3ccc4ccccc4c3)c3ccc4ccccc4c3)CC2)c1 |  | > 100 | 0.26 | > 100 | > 100 |  |  |  |  |  |  | 
Cc1cnn(C(=O)N2CCN(Cc3ccc(OCc4ccccc4)cc3)CC2)c1 | 0.1 | 0.65 | 0.2 | 0.01 | > 100 |  |  |  |  | Active | > 70 | Active
N#Cc1cnn(C(=O)N2CCCCC2)c1 | 0.08 | < 0.01 | 0.12 | 0.06 | > 100 |  |  |  |  |  |  | 
Cc1cnn(C(=O)NCc2ccc(OC(c3ccccc3)c3ccccc3)cc2)c1 | 220 | > 100 | > 100 |  | > 100 |  |  |  |  |  |  | 
O=C(NCc1ccc(OCc2ccccc2)cc1)n1cccn1 | 0.1 | 0.8 | 0.9 |  | > 100 |  |  |  |  |  |  | 
Cc1cnn(C(=O)N(C)CCN(C)Cc2ccc(OCc3ccccc3)cc2)c1 | 0.07 | 8.7 | 1.2 | 1.2 | > 100 |  |  |  |  |  |  | 
N#Cc1cnn(C(=O)NCc2ccc(OC(c3ccccc3)c3ccccc3)cc2)c1 | 80 | > 100 | > 100 |  | > 100 |  |  |  |  |  |  | 
O=C(N1CCN(Cc2ccc(OCc3ccccc3)cc2)CC1)n1cccn1 | 0.01 | 0.06 | 0.45 | 0.22 | > 100 |  |  | > 70 | Active | Active |  | 
Cc1cnn(C(=O)N(C)CCN(C)C(c2ccc(OCc3ccccc3)cc2)c2ccc(OCc3ccccc3)cc2)c1 | 140 | > 1000 | > 1000 | > 1000 | > 1000 |  |  |  |  |  |  | 
Cc1cnn(C(=O)N(C)CCN(C)Cc2cccc(OCc3ccccc3)c2)c1 | 0.035 | 9 | 4.1 | 8.3 | > 100 |  |  |  |  |  |  | 
